{"source": "paper PMC9917443", "about": "(eLife, 2023)", "key": {"[1]": {"test_system": "mEPSCs in brain slices / cultured hippocampal neurons", "conditions": "cultured hippocampal neurons APP17 250 nM, ref Rice et al., 2019; cited from earlier work", "from_the_text": "GBRs are composed of a GB1a or GB1b subunit with a GB2 subunit, which generates heterodimeric GB1a/2 and GB1b/2 receptors ([Pin and Bettler, 2016]). GB1a differs from GB1b by the presence of two N-terminal sushi domains (SD1/2). GB1a/2 and GB1b/2 receptors predominantly localize to pre- and postsynaptic sites, respectively ([Vigot et al., 2006]). APP and sAPP bind to SD1 of GB1a ([Schwenk et al., 2016]; [Dinamarca et al., 2019]; [Rice et al., 2019]). Synthetic APP peptides of 9 or 17 amino acid residues, termed APP9 and APP17, are sufficient for binding and inducing a stable conformation in SD ... || GB1a/2 receptors are abundant at axon terminals where they inhibit neurotransmitter release ([Vigot et al., 2006]). […] A GBR antagonist blocked the effect of APP17 on the mEPSC frequency, supporting a GBR-dependent mechanism."}, "[2]": {"test_system": "GBR-activated K^+ currents in cultured hippocampal neurons", "assay": "K^+ currents in cultured hippocampal neurons (patch-clamp)", "format": "cell-based, mouse", "procedure": "APP17 signaling through native GBRs may depend on protein-protein interactions that are not preserved in the membrane preparations used for the [^35S]GTPγS binding assay. Therefore, we tested whether APP17 influences GBR-mediated Gβγ signaling to K^+ channels in cultured hippocampal neurons using patch-clamp electrophysiology, which preserves the native environment of receptors ([Schuler et al., 2001]; [Vigot et al., 2006]). […] . Neuronal cultures and HEK293T cells were prepared as described ([Dinamarca et al., 2019]). Coverslips with hippocampal neurons (DIV 12–15) or HEK293T cells were transferred to a chamber containing a low-K^+ bath solution (in mM): 145 NaCl, 4 KCl, 5 HEPES, 5.5 D-glucose, 1 MgCl2, and 1.8 CaCl2 (pH 7.4 adjusted with NaOH). Recordings were performed at room temperature using borosilicate pipettes of 3–5 MΩ resistance tips, filled with K-gluconate-based pipette solution (in mM): 150 K-gluconate, 1.1 EGTA, 10 HEPES, 10 Tris-phosphocreatine, 0.3 NaGTP, and 4 MgATP (pH 7.2 adjusted with KOH). Upon achieving whole-cell access, cells were held in voltage-clamp mode at −70 mV (with no correction for liquid junction potential) and baclofen-induced K^+ currents were induced in a high-K^+ bath solution (in mM): 120 NaCl, 25 KCl, 5 HEPES, 5.5 D-glucose, 1 MgCl2, and 1.8 CaCl2 (pH 7.4 adjusted with NaOH). […] Schaffer collaterals were stimulated at 0.1 Hz with brief current pulses via bipolar Pt/Ir wires. Evoked EPSCs were recorded at –60 mV with a Cs^+-based intracellular solution. Baclofen and peptides were bath applied in standard ACSF at room temperature. We recorded mEPSCs in primary neuronal cultures established from embryonic (E15–17) murine hippocampus at DIV13–16 in the presence of 0.5 μM TTX at room temperature ([Dinamarca et al., 2019]). APP17 (250 nM) and (R)-baclofen (30 μM) were applied via superfusion. Template matching with pClamp 10 software (Molecular Devices) was used to detect individual mEPSCs."}, "[3]": {"test_system": "GB1a/2 receptors in HEK293T cells", "assay": "APP17-TMR binding / displacement at GB1a/2 receptors in HEK293T cells", "conditions": "10 μM peptide", "procedure": "Transfected HEK293T cells expressing Flag-GB1a and Flag-GB2 were seeded into 96-well microplates (Greiner Bio-One, Kremsmünster, Austria) at 50,000 cells/well. After 18 hr, peptides were mixed with conditioned medium at the following final concentrations: APP17-TMR (1 µM) with either APP17 (10 µM), sc-APP17 (10 µM), or PBS (vehicle); sc-APP17-TMR (1 µM) in PBS was used as a negative control. After removal of medium, peptide mixes were added to the wells and cells incubated in the dark for 1 hr at room temperature. After removal of the peptides, PBS with MgCl2 and CaCl2 (Sigma-Aldrich) was added to the wells. TMR fluorescence was monitored with a Spark microplate reader (Tecan Group, Männerdorf, Switzerland) using a monochromator (Excitation 544 nm, […] bandwidth; detection […], 25 nm bandwidth). TMR fluorescence was determined after subtraction of the sc-APP17-TMR fluorescence measured at HEK293T cells transfected with pCI plasmid."}, "[4]": {"test_system": "mEPSCs of cultured hippocampal neurons", "assay": "mEPSC frequency in cultured hippocampal neurons", "format": "cell-based, mouse", "conditions": "APP17 250 nM, 0.5 μM TTX, DIV13–16", "procedure": "GB1a/2 receptors are abundant at axon terminals where they inhibit neurotransmitter release ([Vigot et al., 2006]). […] A GBR antagonist blocked the effect of APP17 on the mEPSC frequency, supporting a GBR-dependent mechanism. […] We additionally studied whether APP17 at 250 nM influences eEPSC amplitudes in acute hippocampal slices. Postsynaptic GBR-activated K^+ currents were blocked with a Cs^+-based intracellular solution, which allowed to specifically monitor the activity of presynaptic GBRs.\nNeuronal cultures and HEK293T cells were prepared as described ([Dinamarca et al., 2019]). Coverslips with hippocampal neurons (DIV 12–15) or HEK293T cells were transferred to a chamber containing a low-K^+ bath solution (in mM): 145 NaCl, 4 KCl, 5 HEPES, 5.5 D-glucose, 1 MgCl2, and 1.8 CaCl2 (pH 7.4 adjusted with NaOH). Recordings were performed at room temperature using borosilicate pipettes of 3–5 MΩ resistance tips, filled with K-gluconate-based pipette solution (in mM): 150 K-gluconate, 1.1 EGTA, 10 HEPES, 10 Tris-phosphocreatine, 0.3 NaGTP, and 4 MgATP (pH 7.2 adjusted with KOH). […] Evoked EPSCs were recorded at –60 mV with a Cs^+-based intracellular solution. […] We recorded mEPSCs in primary neuronal cultures established from embryonic (E15–17) murine hippocampus at DIV13–16 in the presence of 0.5 μM TTX at room temperature ([Dinamarca et al., 2019]). […]"}}, "note": "“Also recorded” adds a separate entry of the source."}
{"substance": "Ac-DDSDVWWGGADTDYADG-NH2 [APP17]", "values": [{"measurement": "mEPSC frequency (in words)", "setting": "[1]", "result": "reduce the frequency of mEPSCs; also recorded: reduced the frequency of miniature excitatory postsynaptic currents (mEPSCs) in brain slices"}, {"measurement": "K+ current", "setting": "[2]; 5 µM APP17, column graph (left), single values", "result": -1.055}, {"measurement": "baclofen-induced K^+ currents in presence of peptide (in words)", "setting": "[2]; 5 µM peptide + 5 µM baclofen", "result": "elicited currents of similar amplitudes as baclofen alone"}, {"measurement": "K^+ currents evoked by compound alone (in words)", "setting": "[2]; 5 µM, -70 mV", "result": "did not elicit any currents"}, {"measurement": "displacement of 1 μM APP17-TMR from GB1a/2 receptors (in words)", "setting": "[3]", "result": "displaced 1 μM APP17-TMR from GB1a/2 receptors"}, {"measurement": "mEPSC frequency (in words)", "setting": "[4]", "result": "unable to detect a significant effect of APP17 on the mEPSC frequency"}]}
